One data set deals with HAdV5-GFP. Nature of the data set: Plaque assay (inhibition of HAdV plaque formation). Type of data set: cell-based, HAdV-5. The note with it: for inhibition at 10 µM: read-out: Plaque Assay (%) Inhibition (10 μM); for IC50: read-out: Plaque Assay IC50 (μM), HAdV5-GFP, low MOI, 293β5 cell line; for Selectivity index (SI): ratio of CC50 to IC50 in plaque assay; for EC50: read-out: EC50 (plaque assay). How it is done:
Plaque Assay. […] When cells reached 80-90% confluency, they were infected with HAdV5-GFP (0.06 vp/cell) and rocked for 2 h at 37° C. After the incubation the inoculum was removed, and the cells were washed once with PBS.
Plaque Assay. Compounds were tested using low MOI infections (0.06 vp/cell) and at concentrations of 10 μM and in a dose-response assay ranging from 10 to 0.3 μM in a plaque assay. […] When cells reached 80-90% confluency, they were infected with HAdV5-GFP (0.06 vp/cell) and rocked for 2 h at 37° C. After the incubation the inoculum was removed, and the cells were washed once with PBS. […] The mixture also contained the compounds in concentrations ranging from 10 to 0.3 μM.

In the next data set the test system is A549 cells. The data set can be described thus: Cytotoxicity assay (AlamarBlue). The note with it: read-out: CC50 (μM), cytotoxic concentration 50%; A549 cell line, 48 h. How it is done: Cytotoxicity Assay. The cytotoxicity of the compounds was analyzed by commercial kit AlamarBlue® (Invitrogen, Ref. DAL1025). A549 cells at a density of 5×10^3 cells per well in 96-well plates were seeded. […] Cells were then incubated at 37° C. for 48 h following the kit protocol. The cytotoxic concentration 50 (CC50) value was obtained using the statistical package GraphPad Prism. This assay was performed in duplicate.

Structures can show the parent of a compound that is named as a salt.

The values below come from patent publication US20230140290A1, “SALICYLAMIDE DERIVATIVES AND RELATED METHODS OF MAKING” (THE BOARD OF REGENTS OF THE UNIVERSITY OF TEXAS SY, priority 2020, published 2023).

One may read the inhibition as the share of the control response that was lost under treatment. As usually defined, the IC50 is the midpoint of a concentration-inhibition curve. A word on the EC50: it is the concentration that produces a half-maximal response.

As for `O=C(Nc1ccc([N+](=O)[O-])c(Cl)c1)c1cc(Cl)ccc1O` [Compound 10, 5-Chloro-N-(3-chloro-4-nitrophenyl)-2-hydroxybenzamide], in the data set with HAdV5-GFP, the inhibition at 10 µM was 100% and the IC50 stood at 1 µM.
Take `O=C(Nc1cc([N+](=O)[O-])ccc1F)c1cc(Cl)ccc1O` [Compound 12, 5-Chloro-N-(2-fluoro-5-nitrophenyl)-2-hydroxybenzamide]: in the data set with HAdV5-GFP, the “Selectivity index (SI)” value is 26.2, the inhibition at 10 µM was 100% and the half-maximal inhibitory concentration (IC50) is 0.31 µM. Besides, the CC50 in the data set on A549 cells was found to be 8.1 ± 3.2 µM.
Take `O=C(Nc1ccc(F)c(F)c1)c1cc(Cl)ccc1O` [Compound 15, 5-Chloro-N-(3,4-difluorophenyl)-2-hydroxybenzamide]: in the data set on HAdV5-GFP, the “Selectivity index (SI)” value was found to be 29.6, the inhibition at 10 µM worked out at 100% and the IC50 is 0.27 µM. The CC50 in the data set on A549 cells stood at 8 µM.
The corresponding values for `O=C(Nc1cc(C(F)(F)F)cc(C(F)(F)F)c1)c1cc(Cl)ccc1O` [Compound 16, N-(3,5-Bis(trifluoromethyl)phenyl)-5-chloro-2-hydroxybenzamide] are 68.3, 100%, 0.06 µM and 4.1 µM.
Take `O=C(NCc1ccc(F)cc1F)c1cc(Cl)ccc1O` [Compound 33, 5-Chloro-N-(2,4-difluorobenzyl)-2-hydroxybenzamide]: the inhibition at 10 µM in the data set on HAdV5-GFP was 74.7 ± 6.9%.
Consider `O=C(NCc1ccc(F)c(F)c1)c1cc(Cl)ccc1O` [Compound 34, 5-Chloro-N-(3,4-difluorobenzyl)-2-hydroxybenzamide], for which, in the data set with HAdV5-GFP, the inhibition at 10 µM came to 37.2 ± 23.4%.
With `O=C(NCc1cccc(Cl)c1)c1cc(Cl)ccc1O` [Compound 39, 5-Chloro-N-(3-chlorobenzyl)-2-hydroxybenzamide], the inhibition at 10 µM with HAdV5-GFP amounted to 72 ± 1.5%.
`O=C(NCc1ccc(F)cc1)c1cc(Cl)ccc1O` [Compound 40, 5-Chloro-N-(4-fluorobenzyl)-2-hydroxybenzamide]: the inhibition at 10 µM in the data set with HAdV5-GFP was determined as 72 ± 3%.
On the same count and under the same terms, to `CN(Cc1ccc(F)cc1)C(=O)c1cc(Cl)ccc1O` [Compound 41, 5-Chloro-N-(4-fluorobenzyl)-2-hydroxy-N-methylbenzamide] belongs 0%; to `O=C(NCc1ccccc1)c1cc(Cl)ccc1O` [Compound 45, N-Benzyl-5-chloro-2-hydroxybenzamide], 12.7 ± 2.9%; to `COc1ccc([C@@H](C)NC(=O)c2cc(Cl)ccc2O)cc1` [Compound 50, (R)-5-Chloro-2-hydroxy-N-(1-(4-methoxyphenyl)ethyl)benzamide], 33.5 ± 14.8%.
On to `O=C(Cc1cc(Cl)ccc1O)Nc1ccc([N+](=O)[O-])cc1Cl` [Compound 54, 2-(5-Chloro-2-hydroxyphenyl)-N-(2-chloro-4-nitrophenyl)acetamide], for which, in the data set with HAdV5-GFP, the inhibition at 10 µM stood at 0%.
The same measure, in the same setting: to `CC(C)C[C@H](NC(=O)c1cc(Cl)ccc1O)C(=O)Nc1ccc([N+](=O)[O-])cc1Cl` [Compound 61, (S)-5-Chloro-N-(1-((2-chloro-4-nitrophenyl)amino)-4-methyl-1-oxopentan-2-yl)-2-hydroxybenzamide] belongs 17.4 ± 12.3%; to `CSCC[C@H](NC(=O)c1cc(Cl)ccc1O)C(=O)Nc1ccc([N+](=O)[O-])cc1Cl` [Compound 63, (S)-5-Chloro-N-(1-((2-chloro-4-nitrophenyl)amino)-4-(methylthio)-1-oxobutan-2-yl)-2-hydroxybenzamide], 34.8 ± 16.9%; to `CC(C)[C@H](NC(=O)c1cc(Cl)ccc1O)C(=O)Nc1ccc(C(F)(F)F)cc1Cl` [Compound 66, (S)-5-Chloro-N-(1-((2-chloro-4-(trifluoromethyl)phenyl)amino)-3-methyl-1-oxobutan-2-yl)-2-hydroxybenzamide], 24.8 ± 12.3%.
Still for that read-out and setting: with `CS(=O)(=O)Nc1ccc(Cl)cc1C(=O)N[C@@H](Cc1ccccc1)C(=O)Nc1ccc([N+](=O)[O-])cc1Cl` [Compound 71, (S)-5-Chloro-N-(1-((2-chloro-4-nitrophenyl)amino)-1-oxo-3-phenylpropan-2-yl)-2-(methylsulfonamido)benzamide] the figure was 88.9 ± 15.7%; with `Nc1ccc(NC(=O)c2cc(Cl)ccc2O)c(Cl)c1` [Compound 76, N-(4-Amino-2-chlorophenyl)-5-chloro-2-hydroxybenzamide], 0%.
`CC(=O)Nc1ccc(NC(=O)c2cc(Cl)ccc2O)c(Cl)c1` [Compound 77, N-(4-Acetylamino-2-chlorophenyl)-5-chloro-2-hydroxybenzamide]: the inhibition at 10 µM in the data set on HAdV5-GFP amounted to 0%.
Turning to `NCCNc1ccc(NC(=O)c2cc(Cl)ccc2O)c(Cl)c1` [Compound 123, N-(4-((2-Aminoethyl)amino)-2-chlorophenyl)-5-chloro-2-hydroxybenzamide hydrochloride], the inhibition at 10 µM in the data set with HAdV5-GFP came to 19.4 ± 12.2%.
As for `O=C(Nc1ccc(NC2CCNCC2)cc1Cl)c1cc(Cl)ccc1O` [Compound 125, 5-Chloro-N-(2-chloro-4-(piperidin-4-ylamino)phenyl)-2-hydroxybenzamide hydrochloride], the inhibition at 10 µM in the data set on HAdV5-GFP was found to be 39.7 ± 13.5%.
Same read-out and setting: with `O=C(Nc1ccc(NCC2CCNCC2)cc1Cl)c1cc(Cl)ccc1O` [Compound 127, 5-Chloro-N-(2-chloro-4-((piperidin-4-ylmethyl)amino)phenyl)-2-hydroxybenzamide] the figure was 20.6 ± 10.3%; with `CN1CCC(CNc2ccc(NC(=O)c3cc(Cl)ccc3O)c(Cl)c2)CC1` [Compound 128, 5-Chloro-N-(2-chloro-4-(((1-methylpiperidin-4-yl)methyl)amino)phenyl)-2-hydroxybenzamide], 0%; with `O=C(Nc1ccc(NCCN2CCOCC2)cc1Cl)c1cc(Cl)ccc1O` [Compound 129, 5-Chloro-N-(2-chloro-4-((2-morpholinoethyl)amino)phenyl)-2-hydroxybenzamide], 1.4 ± 12.3%.
For the molecule `O=C(Nc1ccc(NC2CCCC2)cc1Cl)c1ccccc1O` [Compound 135, N-(2-Chloro-4-(cyclopentylamino)phenyl)-2-hydroxybenzamide], the inhibition at 10 µM with HAdV5-GFP worked out at 77.5%.
In the case of `O=C(Nc1ccc(NC2CCCC2)cc1Cl)c1cccc(Cl)c1` [Compound 137, 3-Chloro-N-(2-chloro-4-(cyclopentylamino)phenyl)benzamide], the inhibition at 10 µM in the data set with HAdV5-GFP is 82.9%.
As for `COc1ccc(Cl)cc1C(=O)Nc1ccc(NC2CCCC2)cc1Cl` [Compound 138, 5-Chloro-N-(2-chloro-4-(cyclopentylamino)phenyl)-2-methoxybenzamide], in the data set with HAdV5-GFP, the inhibition at 10 µM came to 78.9%.
On to `CN1CCC(Oc2ccc(Cl)cc2C(=O)Nc2ccc(NC3CCCC3)cc2Cl)CC1` [Compound 139, 5-Chloro-N-(2-chloro-4-(cyclopentylamino)phenyl)-2-((1-methylpiperidin-4-yl)oxy)benzamide], for which the inhibition at 10 µM with HAdV5-GFP amounted to 0%.
Same read-out and setting: to `O=C(Cc1cc(Cl)ccc1O)Nc1ccc(NC2CCCC2)cc1Cl` [Compound 146, 2-(5-Chloro-2-hydroxyphenyl)-N-(2-chloro-4-(cyclopentylamino)phenyl)acetamide] belongs 85.8 ± 5.8%.
Take `O=C(NC1CCCCCC1)c1cc(Cl)ccc1O` [Compound 158, 5-Chloro-N-cycloheptyl-2-hydroxybenzamide]: the concentration giving a half-maximal response (EC50) with HAdV5-GFP stood at 4700 nM.
With `O=C(NC1CCOCC1)c1cc(Cl)ccc1O` [Compound 159, 5-Chloro-2-hydroxy-N-(tetrahydro-2H-pyran-4-yl)benzamide], the inhibition at 10 µM in the data set on HAdV5-GFP came out at 0%.
As for `C[C@H](NC(=O)c1cc(Cl)ccc1O)C1CCCCC1` [Compound 162, (S)-5-chloro-N-(1-cyclohexylethyl)-2-hydroxybenzamide], in the data set on HAdV5-GFP, the EC50 came out at 510 nM and the inhibition at 10 µM was 100%.
As for `O=C(NCC1CCOCC1)c1cc(Cl)ccc1O` [Compound 163, 5-Chloro-2-hydroxy-N-((tetrahydro-2H-pyran-4-yl)methyl)benzamide], in the data set with HAdV5-GFP, the inhibition at 10 µM turned out to be 0%.
Regarding `O=C(NCCC1CCCCC1)c1cc(Cl)ccc1O` [Compound 165, 5-Chloro-N-(2-cyclohexylethyl)-2-hydroxybenzamide], in the data set on HAdV5-GFP, the EC50 is 1000 nM and the IC50 worked out at 1 ± 0.1 µM.
With `CN1CCN(CCNC(=O)c2cc(Cl)ccc2O)CC1` [Compound 167, 5-Chloro-2-hydroxy-N-(2-(4-methylpiperazin-1-yl)ethyl)benzamide], in the data set with HAdV5-GFP, the inhibition at 10 µM worked out at 0%.
In the case of `O=C(NCCN1CCOCC1)c1cc(Cl)ccc1O` [Compound 168, 5-Chloro-2-hydroxy-N-(2-morpholinoethyl)benzamide], in the data set with HAdV5-GFP, the EC50 is 3730 nM and the inhibition at 10 µM turned out to be 0%.
Take `O=C(c1cc(Cl)ccc1O)N1CCCCC1` [Compound 171]: the “Plaque Assay (%) Inhibition (10 μM)” value in the data set on HAdV5-GFP (HAdV5-GFP, 10 μM, low MOI, 293β5 cell line) stood at 0.00 ± 0.00%.
Turning to `CC(=O)N1CCN(C(=O)c2cc(Cl)ccc2O)CC1` [Compound 172, 1-(4-(5-Chloro-2-hydroxybenzoyl)piperazin-1-yl)ethanone], the inhibition at 10 µM in the data set on HAdV5-GFP came out at 0%.
As for `CN1CCN(C(=O)c2cc(Cl)ccc2O)CC1` [Compound 173, (5-Chloro-2-hydroxyphenyl)(4-methylpiperazin-1-yl)methanone], the inhibition at 10 µM in the data set on HAdV5-GFP turned out to be 0%.
